Measurements from patent US6586369B1, “Fungicidal agents containing pyrrolidones as their active agents and use thereof for treating plants” (BASF Aktiengesellschaft, priority 2000, dated 2003).

Assays:
harmful fungi = assay: Fungicidal activity, general statement, no test named; conditions: no test conditions given

C[S+]([O-])C1=C(c2ccccc2)C(=O)N(Nc2ccccc2)C1=O (stereo not shown) [No. 1042, 1-Anilino-3-methylsulfinyl-4-phenylpyrrol-2,5-dione]
melting point: 178 to 180 °C

O=C1C(Br)=C(c2ccccc2)C(=O)N1Nc1ccccc1 [No. 486, 1-Anilino-3-bromo-4-phenylpyrrol-2,5-dione]
melting point: 148 to 149 °C

O=C1C(Cl)=C(c2ccccc2)C(=O)N1Nc1ccccc1 [No. 1, 1-Anilino-3-chloro-4-phenylpyrrol-2,5-dione]
fungicidal activity (in words) (harmful fungi): excellent fungicidal activity | melting point: 143 to 145 °C
